Assay results from paper PMC5218480 (PLoS ONE, 2017).

System: MV-4-11 cells
Assay: Gene expression microarray analysis (Affymetrix PrimeView) and GSEA
Format: cell-based, human
Set-up: RFU PODN (11730768_x_at) / Fold change /veh PODN (11730768_x_at) / RFU LINC00158 (11744669_a_at) / Fold change /veh LINC00158 (11744669_a_at) / RFU DUSP10 (11751237_a_at) / Fold change /veh DUSP10 (11751237_a_at) / RFU ID3 (11757404_x_at) / Fold change /veh ID3 (11757404_x_at) / RFU PLEKHG5 (11737974_s_at) / Fold change /veh PLEKHG5 (11737974_s_at) / RFU LRRC4B (11730491_at) / Fold change /veh LRRC4B (11730491_at) / RFU GIMAP4 (11747438_a_at) / Fold change /veh GIMAP4 (11747438_a_at) / RFU KRT8 (11758183_x_at) / Fold change /veh KRT8 (11758183_x_at) / RFU CNN1 (11734310_a_at) / Fold change /veh CNN1 (11734310_a_at) / RFU VPS37D (11726825_at) / Fold change /veh VPS37D (11726825_at) / RFU C10orf10 (11716522_x_at) / Fold change /veh C10orf10 (11716522_x_at) / RFU KIR2DL2 /// KIR2DL4 /// KIR2DL5A /// KIR2DL5B /// KIR2DS1 /// KIR2DS2 /// KIR2DS3 /// KIR2DS4 /// KIR3DL3 /// KIR3DL3 /// KIR3DS1 (11738374_at) / Fold change /veh KIR2DL2 /// KIR2DL4 /// KIR2DL5A /// KIR2DL5B /// KIR2DS1 /// KIR2DS2 /// KIR2DS3 /// KIR2DS4 /// KIR3DL3 /// KIR3DL3 /// KIR3DS1 (11738374_at) / RFU C1QL1 (11718748_at) / Fold change /veh C1QL1 (11718748_at) / RFU TMPRSS4 (11747572_a_at) / Fold change /veh TMPRSS4 (11747572_a_at) / RFU HAMP (11756126_x_at) / Fold change /veh HAMP (11756126_x_at) / RFU RNFT2 (11725882_a_at) / Fold change /veh RNFT2 (11725882_a_at) / RFU NR4A2 (11747474_a_at) / Fold change /veh NR4A2 (11747474_a_at) / RFU ABCC12 (11746883_a_at) / Fold change /veh ABCC12 (11746883_a_at) / RFU TMEM136 (11760407_x_at) / Fold change /veh TMEM136 (11760407_x_at) / RFU CLDN22 /// WWC2 (11732394_at) / Fold change /veh CLDN22 /// WWC2 (11732394_at) / RFU HLA-DPB1 (11760878_x_at) / Fold change /veh HLA-DPB1 (11760878_x_at) / RFU SPINT1 (11716480_a_at) / Fold change /veh SPINT1 (11716480_a_at) / RFU GAP43 (11754022_s_at) / Fold change /veh GAP43 (11754022_s_at) / RFU A4GNT (11735810_at) / Fold change /veh A4GNT (11735810_at) / RFU PRB3 (11715151_x_at) / Fold change /veh PRB3 (11715151_x_at) / RFU TUBB4B (11761932_at) / Fold change /veh TUBB4B (11761932_at) / RFU CAPN14 (11732068_a_at) / Fold change /veh CAPN14 (11732068_a_at) / RFU TMCC2 (11721928_a_at) / Fold change /veh TMCC2 (11721928_a_at) / RFU IRGQ (11745062_a_at) / Fold change /veh IRGQ (11745062_a_at) / RFU FAM174B (11720279_a_at) / Fold change /veh FAM174B (11720279_a_at) / RFU TMPRSS4 (11748680_a_at) / Fold change /veh TMPRSS4 (11748680_a_at) / RFU FAM212B (11763350_a_at) / Fold change /veh FAM212B (11763350_a_at) / RFU PLEKHG5 (11743358_a_at) / Fold change /veh PLEKHG5 (11743358_a_at) / RFU ZSCAN30 (11745921_a_at) / Fold change /veh ZSCAN30 (11745921_a_at) / RFU CMKLR1 (11741424_a_at) / Fold change /veh CMKLR1 (11741424_a_at) / RFU LOC101060620 /// MAPK8IP1 (11723275_at) / Fold change /veh LOC101060620 /// MAPK8IP1 (11723275_at) / RFU SPTSSB (11747773_x_at) / Fold change /veh SPTSSB (11747773_x_at) / RFU PRSS12 (11739890_at) / Fold change /veh PRSS12 (11739890_at) / RFU BIN1 (11741810_x_at) / Fold change /veh BIN1 (11741810_x_at) / RFU WNT11 (11732464_a_at) / Fold change /veh WNT11 (11732464_a_at) / RFU C10orf10 (11716521_a_at) / Fold change /veh C10orf10 (11716521_a_at) / RFU C5orf56 (11738089_at) / Fold change /veh C5orf56 (11738089_at) / RFU CYB561 (11721691_x_at) / Fold change /veh CYB561 (11721691_x_at) / RFU ANKRD19P (11752326_a_at) / Fold change /veh ANKRD19P (11752326_a_at) / RFU OR2T12 /// OR2T33 /// OR2T8 (11738714_s_at) / Fold change /veh OR2T12 /// OR2T33 /// OR2T8 (11738714_s_at) / RFU VCAN (11748164_a_at) / Fold change /veh VCAN (11748164_a_at) / RFU JSRP1 (11732532_at) / Fold change /veh JSRP1 (11732532_at) / RFU KRTAP10-11 (11738290_x_at) / Fold change /veh KRTAP10-11 (11738290_x_at) / RFU MYO3A (11730013_a_at) / Fold change /veh MYO3A (11730013_a_at) / RFU EBF3 (11725865_a_at) / Fold change /veh EBF3 (11725865_a_at) / RFU CAMK2N1 (11719241_x_at) / Fold change /veh CAMK2N1 (11719241_x_at) / RFU C5orf56 (11738088_a_at) / Fold change /veh C5orf56 (11738088_a_at) / RFU OLFML3 (11715873_a_at) / Fold change /veh OLFML3 (11715873_a_at) / RFU LOC100653217 /// NTM (11731650_a_at) / Fold change /veh LOC100653217 /// NTM (11731650_a_at) / RFU MAPK11 (11762145_a_at) / Fold change /veh MAPK11 (11762145_a_at) / RFU FIZ1 (11724087_x_at) / Fold change /veh FIZ1 (11724087_x_at) / RFU OASL (11726364_x_at) / Fold change /veh OASL (11726364_x_at) / RFU SOX15 (11748057_x_at) / Fold change /veh SOX15 (11748057_x_at) / RFU CD79A (11719716_a_at) / Fold change /veh CD79A (11719716_a_at) / RFU HIST1H1D (11736915_at) / Fold change /veh HIST1H1D (11736915_at) / RFU CASKIN2 (11723855_a_at) / Fold change /veh CASKIN2 (11723855_a_at) / RFU LOC730098 (11760151_x_at) / Fold change /veh LOC730098 (11760151_x_at) / RFU OR4N2 (11742367_at) / Fold change /veh OR4N2 (11742367_at) / RFU PRRT2 (11749266_a_at) / Fold change /veh PRRT2 (11749266_a_at) / RFU SNX32 (11753110_a_at) / Fold change /veh SNX32 (11753110_a_at) / RFU CDHR5 (11726645_a_at) / Fold change /veh CDHR5 (11726645_a_at) / RFU RCAN1 (11760418_a_at) / Fold change /veh RCAN1 (11760418_a_at) / RFU FAM167A (11723789_a_at) / Fold change /veh FAM167A (11723789_a_at) / RFU FAM26E (11764081_at) / Fold change /veh FAM26E (11764081_at) / RFU ISYNA1 (11749810_s_at) / Fold change /veh ISYNA1 (11749810_s_at) / RFU ACY1 (11761880_at) / Fold change /veh ACY1 (11761880_at) / RFU 11764098_at / Fold change /veh 11764098_at / RFU SAMD14 (11745864_x_at) / Fold change /veh SAMD14 (11745864_x_at) / RFU NPB (11741838_a_at) / Fold change /veh NPB (11741838_a_at) / RFU TMPRSS6 (11731388_a_at) / Fold change /veh TMPRSS6 (11731388_a_at) / RFU KRTAP10-2 (11738614_at) / Fold change /veh KRTAP10-2 (11738614_at) / RFU ARHGAP8 /// PRR5-ARHGAP8 (11727945_x_at) / Fold change /veh ARHGAP8 /// PRR5-ARHGAP8 (11727945_x_at) / RFU KRTAP5-7 /// NADSYN1 (11734609_at) / Fold change /veh KRTAP5-7 /// NADSYN1 (11734609_at) / RFU RASL12 (11751679_a_at) / Fold change /veh RASL12 (11751679_a_at) / RFU CDKN2B (11736163_a_at) / Fold change /veh CDKN2B (11736163_a_at) / RFU PRF1 (11729649_at) / Fold change /veh PRF1 (11729649_at) / RFU, ZNF638 /// ZNF638-IT1 / Fold change vs veh, ZNF638 /// ZNF638-IT1 / RFU, PANK3 / Fold change vs veh, PANK3 / RFU, SH3YL1 / Fold change vs veh, SH3YL1 / RFU, ZEB2 / Fold change vs veh, ZEB2 / RFU, NRIP1 / Fold change vs veh, NRIP1 / RFU, PTTG1IP / Fold change vs veh, PTTG1IP / RFU, CAPN2 / Fold change vs veh, CAPN2 / RFU, MED14 / Fold change vs veh, MED14 / RFU, SNORA58 / Fold change vs veh, SNORA58 / RFU, C1orf63 / Fold change vs veh, C1orf63 / RFU, LRRFIP1 / Fold change vs veh, LRRFIP1 / RFU, NDUFAF7 / Fold change vs veh, NDUFAF7 / RFU, SLC12A2 / Fold change vs veh, SLC12A2 / RFU, IBTK / Fold change vs veh, IBTK / RFU, ESF1 / Fold change vs veh, ESF1 / Fold change vs veh, TMEM50B / RFU, TAOK1 / Fold change vs veh, TAOK1 / RFU, ACBD3 / Fold change vs veh, ACBD3 / RFU, TMA16 / Fold change vs veh, TMA16 / RFU, RWDD3 / Fold change vs veh, RWDD3 / RFU, BCAT1 / Fold change vs veh, BCAT1 / RFU, EDEM3 / Fold change vs veh, EDEM3 / RFU, TMEM33 / Fold change vs veh, TMEM33 / RFU, WDR75 / Fold change vs veh, WDR75 / RFU, AHCTF1 / Fold change vs veh, AHCTF1 / RFU, TFRC / Fold change vs veh, TFRC / RFU, ZDHHC17 / Fold change vs veh, ZDHHC17 / RFU, NOM1 / Fold change vs veh, NOM1 / RFU, ARL8B / Fold change vs veh, ARL8B / RFU, ZBTB11 / Fold change vs veh, ZBTB11 / RFU, TAMM41 / Fold change vs veh, TAMM41 / RFU, KIAA1704 /// LOC100996395 / Fold change vs veh, KIAA1704 /// LOC100996395 / RFU, ING1 / Fold change vs veh, ING1 / RFU, TRMT61B / Fold change vs veh, TRMT61B / RFU, FUBP3 / Fold change vs veh, FUBP3 / RFU, TP53 / Fold change vs veh, TP53 / RFU, TNKS2 / Fold change vs veh, TNKS2 / RFU, ZFP14 / Fold change vs veh, ZFP14 / RFU, ACTR2 / Fold change vs veh, ACTR2 / RFU, PPP3R1 / Fold change vs veh, PPP3R1 / RFU, PIK3R1 / Fold change vs veh, PIK3R1 / RFU, HNRNPA1 / Fold change vs veh, HNRNPA1 / RFU, RNF170 / Fold change vs veh, RNF170 / RFU, ZNF28 / Fold change vs veh, ZNF28 / RFU, RNGTT / Fold change vs veh, RNGTT / RFU, OGT / Fold change vs veh, OGT / RFU, BRD1 / Fold change vs veh, BRD1 / RFU, MARS / Fold change vs veh, MARS / RFU, ZNF655 / Fold change vs veh, ZNF655 / RFU, FAHD1 / Fold change vs veh, FAHD1 / RFU, BDP1 / Fold change vs veh, BDP1 / RFU, LRRCC1 / Fold change vs veh, LRRCC1 / RFU, ARID1A / Fold change vs veh, ARID1A / RFU, ZNF146 / Fold change vs veh, ZNF146 / RFU, ZNF330 / Fold change vs veh, ZNF330 / RFU, GPN3 / Fold change vs veh, GPN3 / RFU, C9orf123 / Fold change vs veh, C9orf123 / RFU, N4BP2L2 / Fold change vs veh, N4BP2L2 / RFU, ARFIP1 / Fold change vs veh, ARFIP1 / RFU, FAM179B / Fold change vs veh, FAM179B / RFU, BCL10 / Fold change vs veh, BCL10 / RFU, UHRF1BP1L / Fold change vs veh, UHRF1BP1L / RFU, BET1 / Fold change vs veh, BET1 / RFU, CNOT2 / Fold change vs veh, CNOT2 / RFU, ZNF268 / Fold change vs veh, ZNF268 / Fold change vs veh, ZNF507 / RFU, DGCR2 / Fold change vs veh, DGCR2 / RFU, WDSUB1 / Fold change vs veh, WDSUB1 / Fold change vs veh, HSP90B1 /// MIR3652 / RFU, ADSS / Fold change vs veh, ADSS / RFU, GK / Fold change vs veh, GK / RFU, ZNF148 / Fold change vs veh, ZNF148 / RFU, TAF9 / Fold change vs veh, TAF9 / RFU, SLC1A5 / Fold change vs veh, SLC1A5 / RFU, SLMO2 / Fold change vs veh, SLMO2 / RFU, ABCC4 / Fold change vs veh, ABCC4 / RFU, LOC101060439 /// RAP1B / Fold change vs veh, LOC101060439 /// RAP1B / RFU, RFX7 / Fold change vs veh, RFX7 / RFU, GTPBP10 / Fold change vs veh, GTPBP10 / RFU, CNEP1R1 / Fold change vs veh, CNEP1R1 / RFU, BIVM-ERCC5 /// ERCC5 / Fold change vs veh, BIVM-ERCC5 /// ERCC5 / RFU, ILF3 / Fold change vs veh, ILF3 / RFU 11762660_at / Fold change /veh 11762660_at / RFU VCAN (11757783_s_at) / Fold change /veh VCAN (11757783_s_at) / RFU DDX43 (11728927_at) / Fold change /veh DDX43 (11728927_at) / RFU KRT8 (11758188_x_at) / Fold change /veh KRT8 (11758188_x_at) / RFU NKD1 (11759106_at) / Fold change /veh NKD1 (11759106_at) / RFU SRD5A1 (11742802_a_at) / Fold change /veh SRD5A1 (11742802_a_at) / RFU TPSAB1 /// TPSB2 (11721975_s_at) / Fold change /veh TPSAB1 /// TPSB2 (11721975_s_at) / RFU GSTM3 (11746129_a_at) / Fold change /veh GSTM3 (11746129_a_at) / RFU IL23R (11737362_x_at) / Fold change /veh IL23R (11737362_x_at) / RFU TMEM51 (11727254_a_at) / Fold change /veh TMEM51 (11727254_a_at) / RFU PIWIL2 (11732686_x_at) / Fold change /veh PIWIL2 (11732686_x_at) / RFU ORM1 (11744905_x_at) / Fold change /veh ORM1 (11744905_x_at) / RFU CCDC152 (11743942_at) / Fold change /veh CCDC152 (11743942_at) / RFU ECM1 (11717891_a_at) / Fold change /veh ECM1 (11717891_a_at) / RFU IL23R (11748794_a_at) / Fold change /veh IL23R (11748794_a_at) / RFU TNFAIP8L3 (11732012_x_at) / Fold change /veh TNFAIP8L3 (11732012_x_at) / RFU MBOAT4 (11741988_at) / Fold change /veh MBOAT4 (11741988_at) / RFU 11764193_at / Fold change /veh 11764193_at / RFU TMEM53 (11763286_at) / Fold change /veh TMEM53 (11763286_at) / RFU MAGEB2 (11727129_at) / Fold change /veh MAGEB2 (11727129_at) / RFU TMEM200A (11744735_a_at) / Fold change /veh TMEM200A (11744735_a_at) / RFU CCDC152 (11751479_a_at) / Fold change /veh CCDC152 (11751479_a_at) / RFU FAM211A (11726209_a_at) / Fold change /veh FAM211A (11726209_a_at) / RFU RGS16 (11746705_a_at) / Fold change /veh RGS16 (11746705_a_at) / RFU VCAN (11755009_s_at) / Fold change /veh VCAN (11755009_s_at) / RFU RHOB (11743442_s_at) / Fold change /veh RHOB (11743442_s_at) / RFU RGS16 (11720943_a_at) / Fold change /veh RGS16 (11720943_a_at) / RFU RGS16 (11720944_at) / Fold change /veh RGS16 (11720944_at) / RFU, VPS4B / Fold change vs veh, VPS4B / RFU, CREB1 / Fold change vs veh, CREB1 / RFU, DNAJC13 / Fold change vs veh, DNAJC13 / RFU, GNAQ / Fold change vs veh, GNAQ / RFU, CDK5R1 / Fold change vs veh, CDK5R1 / RFU, ZRANB3 / Fold change vs veh, ZRANB3 / RFU, CUL4A / Fold change vs veh, CUL4A / RFU, CCNY / Fold change vs veh, CCNY / RFU, UFL1 / Fold change vs veh, UFL1 / RFU, COG3 / Fold change vs veh, COG3 / RFU, DIAPH2 / Fold change vs veh, DIAPH2 / RFU, SKA2 / Fold change vs veh, SKA2 / RFU, AFF3 / Fold change vs veh, AFF3 / RFU, LMF1 / Fold change vs veh, LMF1 / RFU, IPO11 / Fold change vs veh, IPO11 / RFU, DFFB / Fold change vs veh, DFFB / RFU, FOXP1 / Fold change vs veh, FOXP1 / RFU, CARD8 / Fold change vs veh, CARD8 / RFU, STRN3 / Fold change vs veh, STRN3 / RFU, ADK / Fold change vs veh, ADK / RFU, RASSF2 / Fold change vs veh, RASSF2 / RFU, WIPF1 / Fold change vs veh, WIPF1 / RFU, LARP1B / Fold change vs veh, LARP1B / RFU, RASA1 / Fold change vs veh, RASA1 / RFU, RB1 / Fold change vs veh, RB1 / RFU, PPFIA1 / Fold change vs veh, PPFIA1 / RFU, MAT2A / Fold change vs veh, MAT2A / RFU, CCT5 / Fold change vs veh, CCT5 / RFU, WDR92 / Fold change vs veh, WDR92 / RFU, CUX1 / Fold change vs veh, CUX1 / RFU, TTC7A / Fold change vs veh, TTC7A / RFU, TMEM135 / Fold change vs veh, TMEM135 / RFU, DEPTOR / Fold change vs veh, DEPTOR / RFU, CPM / Fold change vs veh, CPM / RFU, DNAJB6 / Fold change vs veh, DNAJB6 / RFU, CACNA2D3 / Fold change vs veh, CACNA2D3 / RFU, DTX4 / Fold change vs veh, DTX4 / RFU, TFCP2 / Fold change vs veh, TFCP2 / RFU, GMCL1 /// GMCL1P1 / Fold change vs veh, GMCL1 /// GMCL1P1 / RFU, AEBP2 / Fold change vs veh, AEBP2 / RFU, SNHG1 /// SNORD22 /// SNORD25 /// SNORD26 /// SNORD27 /// SNORD28 /// SNORD29 /// SNORD31 / Fold change vs veh, SNHG1 /// SNORD22 /// SNORD25 /// SNORD26 /// SNORD27 /// SNORD28 /// SNORD29 /// SNORD31 / Fold change (Aza/veh), C12orf56 (ProbeSet 11735607_a_at) / Fold change (ACY-1035/veh), C12orf56 (ProbeSet 11735607_a_at) / Fold change (Aza/veh), FGFR1OP (ProbeSet 11751329_s_at) / Fold change (ACY-1035/veh), FGFR1OP (ProbeSet 11751329_s_at) / Fold change (Aza/veh), VPS36 (ProbeSet 11739960_a_at) / Fold change (ACY-1035/veh), VPS36 (ProbeSet 11739960_a_at) / RFU SYPL1 (11715823_x_at) / Fold change /veh SYPL1 (11715823_x_at) / RFU IGFBP7 (11715501_s_at) / Fold change /veh IGFBP7 (11715501_s_at) / RFU REEP3 (11722064_at) / Fold change /veh REEP3 (11722064_at) / RFU IGLL1 (11728026_x_at) / Fold change /veh IGLL1 (11728026_x_at): dose or concentration left out as unconfirmed
Details: ProbeSet 11722463_a_at; LIST B

Nc1ccc(-c2cccs2)cc1NC(=O)c1ccc2c(c1)cc(C1CC1)n2CCN1CCOCC1 [ACY-1035]
Fold change vs veh, TNKS2: 0.96
